In patent US11142560B2, “Biphasic single-chain insulin analogues” (Case Western Reserve University, priority 2014, dated 2021):
Bridge positions count the residues as written; N and C are the ends. Ends that are not written are not given here.

Target: A isoform of the insulin receptor (Homo sapiens, UniProt P06213)
Assay: Receptor-binding assay, insulin receptor A isoform
Conditions: two-site sequential model, read-out: equilibrium dissociation constant / binding constant
Protocol: The receptor-binding affinities of SCI-57DP and SCI-57PE were determined in relation to wild-type human insulin. The assay employed the A isoform of the insulin receptor. […] The protocol for assay of receptor-binding activities was as follows. Microtiter strip plates (Nunc Maxisorb) were incubated overnight at 4° C. with AU5 IgG (100 μl/well of […] in phosphate-buffered saline). Binding data were analyzed by a two-site sequential model.

A isoform of the insulin receptor, sequence (P06213 28-746 isoform P06213-2 limits assumed): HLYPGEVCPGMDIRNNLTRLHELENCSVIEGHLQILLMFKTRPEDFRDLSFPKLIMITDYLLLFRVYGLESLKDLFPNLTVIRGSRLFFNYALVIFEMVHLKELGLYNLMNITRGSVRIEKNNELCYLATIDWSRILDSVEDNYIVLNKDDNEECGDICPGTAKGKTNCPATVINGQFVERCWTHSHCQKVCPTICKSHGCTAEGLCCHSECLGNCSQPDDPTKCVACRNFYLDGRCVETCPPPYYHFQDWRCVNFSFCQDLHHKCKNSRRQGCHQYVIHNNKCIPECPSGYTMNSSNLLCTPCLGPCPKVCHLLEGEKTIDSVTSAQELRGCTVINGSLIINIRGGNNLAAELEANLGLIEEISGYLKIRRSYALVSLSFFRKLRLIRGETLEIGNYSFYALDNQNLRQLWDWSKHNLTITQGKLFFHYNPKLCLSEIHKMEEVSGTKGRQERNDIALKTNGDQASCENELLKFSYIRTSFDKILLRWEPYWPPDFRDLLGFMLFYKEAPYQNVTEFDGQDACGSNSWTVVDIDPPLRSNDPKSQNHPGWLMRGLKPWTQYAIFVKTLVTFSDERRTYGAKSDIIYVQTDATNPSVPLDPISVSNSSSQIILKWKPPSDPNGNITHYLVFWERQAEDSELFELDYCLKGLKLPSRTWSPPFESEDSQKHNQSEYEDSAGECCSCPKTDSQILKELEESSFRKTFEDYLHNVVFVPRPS
A isoform of the insulin receptor, sequence (P06213 763-1382 partner limits assumed): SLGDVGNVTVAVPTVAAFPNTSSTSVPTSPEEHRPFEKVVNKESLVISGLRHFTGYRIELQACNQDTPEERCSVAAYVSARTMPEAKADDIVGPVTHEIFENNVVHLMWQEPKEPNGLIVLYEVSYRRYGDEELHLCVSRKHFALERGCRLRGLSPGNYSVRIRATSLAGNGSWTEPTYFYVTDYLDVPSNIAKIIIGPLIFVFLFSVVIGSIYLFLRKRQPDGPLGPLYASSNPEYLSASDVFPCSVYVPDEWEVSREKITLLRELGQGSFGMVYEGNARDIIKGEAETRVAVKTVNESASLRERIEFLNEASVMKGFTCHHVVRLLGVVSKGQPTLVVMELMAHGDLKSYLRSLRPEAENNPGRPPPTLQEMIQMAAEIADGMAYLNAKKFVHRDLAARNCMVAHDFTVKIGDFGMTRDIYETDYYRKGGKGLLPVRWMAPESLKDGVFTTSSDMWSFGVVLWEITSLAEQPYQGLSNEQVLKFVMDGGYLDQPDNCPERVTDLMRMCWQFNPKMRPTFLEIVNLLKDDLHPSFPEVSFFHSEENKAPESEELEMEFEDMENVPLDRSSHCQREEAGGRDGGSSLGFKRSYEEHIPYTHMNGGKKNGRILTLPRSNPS

Kd	Sequence
0.06 nM	FVNQHLCGSHLVEALYLVCGERGFFYTDPTEEGPRRGIVEQCCHSICSLEQLENYCN (disulfide 7-43, 19-56, 42-47) [SCI-57DP]
0.08 nM	FVNQHLCGSHLVEALYLVCGERGFFYTPETEEGPRRGIVEQCCHSICSLEQLENYCN (disulfide 7-43, 19-56, 42-47) [SCI-57PE]
